# According to patent publication US9150566B2, “2-(1,2,3-triazol-2-yl)benzamide and 3-(1,2,3-triazol-2-YL)picolinamide derivatives as orexin receptor antagonists” (ACTELION PHARMACEUTICALS LTD., priority 2011, dated 2015):
# Where two headings read alike, the source gives them in different places.
# Columns and labels:
# [1] = target: human orexin-2 receptor (Homo sapiens (Human), UniProt O43614); experiment: In vitro intracellular calcium measurements (FLIPR), antagonistic activity on orexin-2 receptor; type: cell-based; conditions: CHO cells expressing human orexin-2 receptor; FLIPR; 3 nM orexin-A agonist; 120 min antagonist incubation; geometric mean if determined several times; read-out: IC50 OX2
# Summary of the method: (§1)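 CHO cells expressing human orexin-1 or orexin-2 receptor were seeded overnight, preincubated with antagonist for 120 min, then stimulated with agonist in a FLIPR Tetra.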
# [2] = target: human orexin-1 receptor (Homo sapiens (Human), UniProt O43613); experiment: In vitro intracellular calcium measurements (FLIPR), antagonistic activity on orexin-1 receptor; type: cell-based; conditions: read-out: IC50 OX1
# Summary of the method: as §1
# [3] = target: CYP3A4 (Homo sapiens (Human), UniProt P08684); experiment: CYP3A4 inhibition assay (human liver microsomes, testosterone 6β-hydroxylation); conditions: read-out: CYP3A4 IC50, 40 μM testosterone
# Method: The CYP3A4 inhibition assay was performed using human liver microsomes and testosterone 6β-hydroxylation as a P450 isoform-specific marker. In a total volume of 150 μL, ^14C-testosterone at a final concentration of 40 μM in a 100 mM phosphate buffer (pH 7.4) was incubated in a 96-well plate with 0.3 mg/mL of human liver microsomes in an Eppendorf thermomixer at 37° C. and 400 rpm. […] The reaction was initiated by addition of 15 μL of the NADPH-regenerating system containing the glucose-6-phosphate dehydrogenase and terminated after 7 min with a 75 μL-aliquot of methanol. After centrifugation at 465 g and 4° C. for 20 min, a 50 μL-aliquot of the supernatant was submitted to HPLC according to the method described below. The total concentration of DMSO in the assay including controls without inhibitor was 1%.
# Nicardipine was run in parallel as a reference inhibitor of CYP3A4 activity at final concentrations of 0, 0.1, 0.5, 1.0, 5.0, 10, 25, and 50 μM. Stock solutions thereof were prepared in DMSO.
# The chromatographic separation of testosterone and 6β-hydroxytestosterone was achieved on a Phenomenex Luna C18(2) column (5 μm, 2.0×10 mm) at RT with a flow rate of 0.6 mL/min. Mobile phases consisted of 1% aqueous formic acid (phase A) and methanol (phase B) using a gradient method with 0.9 min total run time.
# The quantification of 6β-hydroxytestosterone was carried out using a quadrupole mass spectrometer equipped with an ionspray interface operating in positive ion mode. The parameters of the mass detector were set as follows: capillary voltage 5 kV, auxiliary gas 40 psi, collision gas 3 mTorr, and transfer capillary temperature 420° C.
# [4] = CHO cells expressing human orexin-1 receptor, FLIPR, 3 nM orexin-A agonist, 120 min antagonist incubation, geometric mean if determined several times
# Chain of human orexin-1 receptor (O43613 whole entry): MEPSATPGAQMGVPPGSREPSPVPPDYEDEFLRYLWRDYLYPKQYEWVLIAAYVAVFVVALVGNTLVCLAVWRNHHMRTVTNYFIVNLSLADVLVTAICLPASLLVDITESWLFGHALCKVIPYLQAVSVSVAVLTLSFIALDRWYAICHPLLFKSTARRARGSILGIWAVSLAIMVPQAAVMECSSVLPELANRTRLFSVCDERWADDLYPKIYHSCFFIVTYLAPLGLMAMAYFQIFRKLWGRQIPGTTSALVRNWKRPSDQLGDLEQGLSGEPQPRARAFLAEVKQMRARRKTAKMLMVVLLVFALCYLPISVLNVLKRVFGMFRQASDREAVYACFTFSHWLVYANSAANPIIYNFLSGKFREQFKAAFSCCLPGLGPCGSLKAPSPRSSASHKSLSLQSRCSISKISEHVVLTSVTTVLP
# Chain of human orexin-2 receptor (O43614 whole entry): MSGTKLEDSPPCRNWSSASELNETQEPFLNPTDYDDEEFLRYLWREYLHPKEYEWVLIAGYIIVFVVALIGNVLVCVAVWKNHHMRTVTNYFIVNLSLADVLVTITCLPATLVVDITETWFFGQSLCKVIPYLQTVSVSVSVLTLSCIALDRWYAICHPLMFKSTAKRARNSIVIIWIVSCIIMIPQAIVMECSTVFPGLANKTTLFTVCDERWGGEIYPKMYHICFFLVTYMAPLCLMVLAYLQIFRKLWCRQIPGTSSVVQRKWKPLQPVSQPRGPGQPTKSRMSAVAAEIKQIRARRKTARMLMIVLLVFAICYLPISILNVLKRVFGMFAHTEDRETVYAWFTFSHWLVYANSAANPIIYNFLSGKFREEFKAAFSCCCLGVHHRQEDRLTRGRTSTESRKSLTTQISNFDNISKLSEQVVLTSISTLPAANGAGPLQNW
# Chain of CYP3A4 (P08684 whole entry): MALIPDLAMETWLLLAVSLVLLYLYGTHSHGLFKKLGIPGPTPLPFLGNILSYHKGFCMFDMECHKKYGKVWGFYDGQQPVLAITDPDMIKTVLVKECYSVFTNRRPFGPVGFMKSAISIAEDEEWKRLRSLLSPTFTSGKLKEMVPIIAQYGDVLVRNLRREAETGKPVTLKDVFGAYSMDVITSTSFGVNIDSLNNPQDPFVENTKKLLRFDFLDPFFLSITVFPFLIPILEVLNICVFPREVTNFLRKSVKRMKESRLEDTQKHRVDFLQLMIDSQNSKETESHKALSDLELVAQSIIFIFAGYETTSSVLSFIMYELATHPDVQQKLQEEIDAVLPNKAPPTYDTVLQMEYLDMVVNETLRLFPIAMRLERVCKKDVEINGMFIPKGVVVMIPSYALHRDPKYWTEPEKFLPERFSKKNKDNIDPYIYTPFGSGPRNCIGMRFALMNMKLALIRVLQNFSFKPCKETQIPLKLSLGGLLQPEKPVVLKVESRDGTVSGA
Compound,IC50 [1],"IC50 [2, 4]",IC50 [3],IC50 [2]
"COc1ccc(-n2nccn2)c(C(=O)N2CCOC[C@H]2Cc2cccc(-n3nccn3)c2)c1F [Example 33, (2-Fluoro-3-methoxy-6-[1,2,3]triazol-2-yl-phenyl)-[(R)-3-(3-[1,2,3]triazol-2-yl-benzyl)-morpholin-4-yl]-methanone]",1200 nM,14 nM,> 50000 nM,
"C[C@@H]1COC[C@@H](Cc2cccc(-n3nccn3)c2)N1C(=O)c1ccccc1-n1nccn1 [Example 68, [(3R,5R)-3-Methyl-5-(3-[1,2,3]triazol-2-yl-benzyl)-morpholin-4-yl]-(2-[1,2,3]triazol-2-yl-phenyl)-methanone]",1300 nM,16 nM,24000 nM,
"Cc1ccc(C(=O)N2CCOC[C@H]2Cc2cc(-n3nccn3)ccc2Cl)c(-n2nccn2)c1C [Example 169, [(R)-3-(2-Chloro-5-[1,2,3]triazol-2-yl-benzyl)-morpholin-4-yl]-(3,4-dimethyl-2-[1,2,3]triazol-2-yl-phenyl)-methanone]",2440 nM,5 nM,29000 nM,
"Cc1ccc(C(=O)N2CCOC[C@H]2Cc2cc(-c3cccnn3)ccc2F)c(-n2nccn2)c1 [Example 166, [(R)-3-(2-Fluoro-5-pyridazin-3-yl-benzyl)-morpholin-4-yl]-(4-methyl-2-[1,2,3]triazol-2-yl-phenyl)-methanone]",1400 nM,13 nM,19000 nM,
"COc1ccc(C[C@@H]2COCCN2C(=O)c2ccccc2-n2nccn2)cc1-c1cccnn1 [Example 7, [(R)-3-(4-Methoxy-3-pyridazin-3-yl-benzyl)-morpholin-4-yl]-(2-[1,2,3]triazol-2-yl-phenyl)-methanone]",6090 nM,26 nM,> 50000 nM,
"Cc1cc(C(=O)N2CCOC[C@H]2Cc2cccc(-c3ncon3)c2)c(-n2nccn2)cc1C [Example 85, (4,5-Dimethyl-2-[1,2,3]triazol-2-yl-phenyl)-[(R)-3-(3-[1,2,4]oxadiazol-3-yl-benzyl)-morpholin-4-yl]-methanone]",21 nM,1 nM,25000 nM,
"Cc1ccc(-n2nccn2)c(C(=O)N2CCOC[C@H]2Cc2cccc(-n3cccn3)c2)n1 [Example 53, (6-Methyl-3-[1,2,3]triazol-2-yl-pyridin-2-yl)-[(R)-3-(3-pyrazol-1-yl-benzyl)-morpholin-4-yl]-methanone]",3400 nM,27 nM,> 50000 nM,
"Cc1ccc(-n2nccn2)c(C(=O)N2[C@H](Cc3cccc(-n4nccn4)c3)COC[C@@H]2C)c1 [Example 73, [(3S,5R)-3-Methyl-5-(3-[1,2,3]triazol-2-yl-benzyl)-morpholin-4-yl]-(5-methyl-2-[1,2,3]triazol-2-yl-phenyl)-methanone]",1850 nM,10 nM,6800 nM,
"Cc1cccc(C(=O)N2C[C@@H](C)OC[C@H]2Cc2cc(-n3nccn3)ccc2F)c1-n1nccn1 [Example 118, [(2R,5R)-5-(2-Fluoro-5-[1,2,3]triazol-2-yl-benzyl)-2-methyl-morpholin-4-yl]-(3-methyl-2-[1,2,3]triazol-2-yl-phenyl)-methanone]",728 nM,10 nM,23000 nM,
"Cc1ccc(C(=O)N2CCOC[C@H]2Cc2cc(-c3ncon3)ccc2F)c(-n2nccn2)c1 [Example 175, [(R)-3-(2-Fluoro-5-[1,2,4]oxadiazol-3-yl-benzyl)-morpholin-4-yl]-(4-methyl-2-[1,2,3]triazol-2-yl-phenyl)-methanone]",359 nM,3 nM,35000 nM,
"O=C(c1cc(Cl)ccc1-n1nccn1)N1CCOC[C@H]1Cc1cccc(-c2ncccn2)c1 [Example 51, (5-Chloro-2-[1,2,3]triazol-2-yl-phenyl)-[(R)-3-(3-pyrimidin-2-yl-benzyl)-morpholin-4-yl]-methanone]",229 nM,3 nM,20000 nM,
"Cc1ccc(C(=O)N2C[C@@H](C)OC[C@H]2Cc2cc(-n3nccn3)ccc2F)c(-n2nccn2)c1 [Example 117, [(2R,5R)-5-(2-Fluoro-5-[1,2,3]triazol-2-yl-benzyl)-2-methyl-morpholin-4-yl]-(4-methyl-2-[1,2,3]triazol-2-yl-phenyl)-methanone]",107 nM,5 nM,23000 nM,
"C[C@@H]1CN(C(=O)c2cc(Cl)ccc2-n2nccn2)[C@H](Cc2cc(-c3ncccn3)ccc2F)CO1 [Example 152, (5-Chloro-2-[1,2,3]triazol-2-yl-phenyl)-[(2R,5R)-5-(2-fluoro-5-pyrimidin-2-yl-benzyl)-2-methyl-morpholin-4-yl]-methanone]",129 nM,4 nM,15000 nM,
"O=C(c1ccc(Cl)cc1-n1nccn1)N1CCOC[C@H]1Cc1cc(-c2ncon2)ccc1F [Example 178, (4-Chloro-2-[1,2,3]triazol-2-yl-phenyl)-[(R)-3-(2-fluoro-5-[1,2,4]oxadiazol-3-yl-benzyl)-morpholin-4-yl]-methanone]",165 nM,2 nM,24000 nM,
"Cc1ccc(-n2nccn2)c(C(=O)N2CCOC[C@H]2Cc2cccc(-c3ncccn3)c2)c1 [Example 17, (5-Methyl-2-[1,2,3]triazol-2-yl-phenyl)-[(R)-3-(3-pyrimidin-2-yl-benzyl)-morpholin-4-yl]-methanone]",396 nM,2 nM,33000 nM,
"Cc1ccc(-n2nccn2)c(C(=O)N2C[C@@H](C)OC[C@H]2Cc2cccc(-c3ncccn3)c2)c1 [Example 109, [(2R,5R)-2-Methyl-5-(3-pyrimidin-2-yl-benzyl)-morpholin-4-yl]-(5-methyl-2-[1,2,3]triazol-2-yl-phenyl)-methanone]",105 nM,1 nM,43000 nM,
"COc1ccc(C[C@@H]2COCCN2C(=O)c2ccc(F)cc2-n2nccn2)cc1-c1ncon1 [Example 61, (4-Fluoro-2-[1,2,3]triazol-2-yl-phenyl)-[(R)-3-(4-methoxy-3-[1,2,4]oxadiazol-3-yl-benzyl)-morpholin-4-yl]-methanone]",60 nM,1 nM,42000 nM,
"O=C(c1cc(F)ccc1-n1nccn1)N1CCOC[C@H]1Cc1cccc(-n2cccn2)c1 [Example 20, (5-Fluoro-2-[1,2,3]triazol-2-yl-phenyl)-[(R)-3-(3-pyrazol-1-yl-benzyl)-morpholin-4-yl]-methanone]",1530 nM,25 nM,25000 nM,
"O=C(c1cccc(Cl)c1-n1nccn1)N1CCOC[C@H]1Cc1cccc(-n2nccn2)c1 [Example 107, (3-Chloro-2-[1,2,3]triazol-2-yl-phenyl)-[(R)-3-(3-[1,2,3]triazol-2-yl-benzyl)-morpholin-4-yl]-methanone]",435 nM,5 nM,22000 nM,
"O=C(c1cc(F)c(F)cc1-n1nccn1)N1CCOC[C@H]1Cc1cccc(-n2nccn2)c1 [Example 91, (4,5-Difluoro-2-[1,2,3]triazol-2-yl-phenyl)-[(R)-3-(3-[1,2,3]triazol-2-yl-benzyl)-morpholin-4-yl]-methanone]",612 nM,10 nM,17000 nM,
"COc1cc(C(=O)N2CCOC[C@H]2Cc2cc(-n3nccn3)ccc2F)c(-n2nccn2)cc1C [Example 134, [(R)-3-(2-Fluoro-5-[1,2,3]triazol-2-yl-benzyl)-morpholin-4-yl]-(5-methoxy-4-methyl-2-[1,2,3]triazol-2-yl-phenyl)-methanone]",336 nM,11 nM,19000 nM,
"C[C@@H]1CN(C(=O)c2cc(Cl)ccc2-n2nccn2)[C@H](Cc2cc(-n3nccn3)ccc2F)CO1 [Example 186, (5-Chloro-2-[1,2,3]triazol-2-yl-phenyl)-[(2R,5R)-5-(2-fluoro-5-[1,2,3]triazol-2-yl-benzyl)-2-methyl-morpholin-4-yl]-methanone]",181 nM,11 nM,19000 nM,
"Cc1ccc(C(=O)N2CCOC[C@H]2Cc2cc(-c3ncon3)ccc2F)c(-n2nccn2)c1C [Example 181, (3,4-Dimethyl-2-[1,2,3]triazol-2-yl-phenyl)-[(R)-3-(2-fluoro-5-[1,2,4]oxadiazol-3-yl-benzyl)-morpholin-4-yl]-methanone]",1570 nM,11 nM,36000 nM,
"O=C(c1cccc(Cl)c1-n1nccn1)N1CCOC[C@H]1Cc1cc(-n2nccn2)ccc1Cl [Example 171, [(R)-3-(2-Chloro-5-[1,2,3]triazol-2-yl-benzyl)-morpholin-4-yl]-(3-chloro-2-[1,2,3]triazol-2-yl-phenyl)-methanone]",675 nM,10 nM,13000 nM,
"Cc1ccc(-n2nccn2)c(C(=O)N2CCOC[C@@]2(C)Cc2cccc(-n3nccn3)c2)c1 [Example 102, [(R)-3-Methyl-3-(3-[1,2,3]triazol-2-yl-benzyl)-morpholin-4-yl]-(5-methyl-2-[1,2,3]triazol-2-yl-phenyl)-methanone]",1510 nM,25 nM,17000 nM,
"Cc1ccc(C(=O)N2CCOC[C@H]2Cc2cc(F)cc(-n3nccn3)c2)c(-n2nccn2)c1 [Example 146, [(R)-3-(3-Fluoro-5-[1,2,3]triazol-2-yl-benzyl)-morpholin-4-yl]-(4-methyl-2-[1,2,3]triazol-2-yl-phenyl)-methanone]",282 nM,,40000 nM,3 nM
"Cc1ccc(C[C@@H]2COCCN2C(=O)c2ccccc2-n2nccn2)cc1-c1nccs1 [Example 193, [(R)-3-(4-Methyl-3-thiazol-2-yl-benzyl)-morpholin-4-yl]-(2-[1,2,3]triazol-2-yl-phenyl)-methanone]",238 nM,1 nM,600 nM,
